Data set [1] relates to synaptic and extrasynaptic GABAA receptors. The settings on record: cited from earlier work.
The nature of data set [2]: Population PK modeling of the relationship between plasma and breast milk concentrations. It counts as in vivo, human. The method, then: (§1) Healthy volunteers (N=15) aged 18-45 years, >12 weeks postpartum, actively lactating, and pumping or breast feeding ≥3 times per day orally self-administered Compound (1) 30 mg once-daily with food for 5 days. Breast milk was collected from Day −3 through Day 12. Blood samples for PK and plasma protein binding analysis were collected predose (Day 1), on Days 5-6, and during follow-up (Days 7, 9, and 12). The relationship between plasma and breast milk concentrations was examined with population PK modeling.

Data set [3] can be described thus: Safety and tolerability in healthy lactating participants. It counts as in vivo, human.
Text: (§2) Compound (1) is an investigational, synthetic, oral neuroactive steroid under investigation as a once-daily therapy for major depressive disorder and postpartum depression. This open-label study evaluated the extent of Compound (1) transfer into breast milk, breast milk production (volume), pharmacokinetics (PK), plasma protein binding, safety, and tolerability in healthy lactating participants.
as §1

Data set [4] can be described thus: Open-label study: transfer of Compound (1) into breast milk of healthy lactating women. Type of data set: in vivo, human.
Text: as §2, §1

Data set [5] concerns plasma protein. The experiment in a line: Plasma protein binding analysis of blood samples from healthy lactating participants. It counts as in vitro ADME. The settings on record: female, human, across participants, 30 mg once-daily oral with food for 5 days, read-out: free fraction in plasma (plasma protein binding).
Text: as §2, §1

A short description of data set [6]: Breast milk production (volume) in healthy lactating participants. It counts as in vivo, human. The conditions noted are these: 30 mg once-daily oral for 5 days; inter-participant variability noted.
Text: as §2, §1

For `C[C@@]1(O)CC[C@H]2[C@H](CC[C@@H]3[C@@H]2CC[C@]2(C)[C@@H](C(=O)Cn4cc(C#N)cn4)CC[C@@H]32)C1` [Compound (1), 1-(2-((3R,5R,8R,9R,10S,13S,14S,17S)-3-hydroxy-3,13-dimethylhexadecahydro-1H-cyclopenta[a]phenanthren-17-yl)-2-oxoethyl)-1H-pyrazole-4-carbonitrile], the “action on GABAA receptors” value in data set [1] was “positive allosteric modulator”. Besides, the Kp in data set [2] (female, human, breast milk/plasma, oral, 30 mg, constant, population PK modeling, read-out: partition coefficient between milk and plasma) was 0.501. In addition, in data set [2] (in vivo), the “relationship of plasma concentrations with time or collected milk volume” value is reported as “no apparent relationship”. Further, in data set [2] (population PK modeling), the “between-subject variability in milk/plasma partitioning” value amounted to 23%. The tolerability result in data set [3] (30 mg for 5 days, healthy lactating participants) is “well-tolerated”. The adverse events reported result in data set [3] (30 mg once-daily oral for 5 days, N=15) is “No deaths, serious adverse events, moderate or severe treatment-emergent adverse events (TEAEs), or TEAEs leading to discontinuation or study withdrawal were reported”. Besides, the “breast milk concentration relative to plasma concentration” value in data set [4] (30 mg once-daily for 5 days) is given as “approximately one-half”. Besides, the daily infant dose in data set [4] (Day 5, 30 mg once-daily oral for 5 days) came out at 0.00125 mg/kg/day. The “estimated mean relative infant dose (RID)” value in data set [4] (Day 5, 30 mg once-daily oral for 5 days, compared to maternal dose) is recorded as 0.357%. In data set [5], the fraction unbound was not above 0.0052. Further, in data set [6], the “decrease of volume of milk collected from baseline” value came to 8.3%.

(Values after patent publication US20240216396A1, “NEUROACTIVE STEROID FOR USE IN TREATING MAJOR DEPRESSIVE DISORDER AND […] A LACTATING FEMALE” (Sage Therapeutics, Inc., priority 2021, published 2024).)
